# Measured values as given in patent publication US12576052B2, “Metformin inhalation powder aerosol for treating idiopathic pulmonary fibrosis and preparation method thereof” (Wenzhou Medical University, priority 2022, dated 2026).
# Legend:
# [1] = mouse, in vivo
# Description: (§1) According to the experimental results and the conversion rules of equivalent dose between different species (as shown in table 3), the no observable adverse effect level (NOAEL) of mice is converted into the human equivalent dose HED.
# (§2) Among them, NOAEL: no observable adverse effect level dose obtained through animal preclinical toxicology research; HED: human equivalent dose.
# α-SMA = α-SMA immunofluorescence of lung tissue in bleomycin-induced pulmonary fibrosis mice; assay type: in vivo, C57BL6 mice; details: BLM+Met vs BLM group; inhalation powder aerosol of Embodiment 2, 5 mg per mouse every day for 3 weeks; FIG. 7
# Protocol: Among them, BLM: bleomycin-induced pulmonary fibrosis mouse model group; BLM+Met: the effect of atomization inhalation of metformin on macroscopic damage of lung in mice with pulmonary fibrosis.
# Dosage of inhaled metformin: the reference value of local administration concentration of metformin in upper respiratory tract is 200 mg/kg. […]
# α-SMA immunofluorescence: lung tissue slides are dried at 65° C., dewaxed with xylene and dehydrated with gradient alcohol. […] The slides are sealed and the fluorescence intensity is observed under a fluorescence microscope.
# Statistical analysis: the experimental data of each group are statistically analyzed by GraphpadPrism9.0 software. All the experimental data are tested for normality, and the measurement data are expressed as mean±standard deviation. […]
# [2] = tested on: mice with pulmonary fibrosis; test: Bleomycin-induced pulmonary fibrosis mouse model: body weight, macroscopic lung damage, HE and Masson staining; assay type: in vivo, C57BL6 mice; details: inhalation powder aerosol of Embodiment 2, 5 mg per mouse every day for 3 weeks
# Protocol: Establishment of pulmonary fibrosis model: C57BL6 mice aged 6-8 weeks are selected and adapted for one week. Bleomycin (3 mg/kg/50 μl) is given orally to mice in BLM group and BLM+Met group on the first day, and the dry powder of bleomycin is prepared to the required concentration with sterile phosphate buffer saline non-surgical method of bleomycin orally injected into mice's lungs: mice are anesthetized with isoflurane and hung on the operating board at 70°. Bleomycin is dripped orally using a 200 μl pipette).
# Dosage of inhaled metformin: the reference value of local administration concentration of metformin in upper respiratory tract is 200 mg/kg. According to the weight of 25 g per mouse, each mouse inhales 5 mg of metformin inhalation powder aerosol in Embodiment 2 every day for 3 weeks.
# Weighing: weights of the mice are weighed at a fixed time every morning and recorded, and the changes of mice's weight are observed at different times in each group.
# Hematoxylin Eosin (HE) staining and Masson staining: the lung tissue of mice is fixed in 4% paraformaldehyde for 24 hours, washed overnight with running water, dehydrated by conventional alcohol, embedded in paraffin, cut into 5-micron slides, stained with HE and Masson, and sealed with neutral gum after applying xylene for transparency. The pathological changes of lung are observed under optical microscope and photos are taken.
# Statistical analysis: the experimental data of each group are statistically analyzed by GraphpadPrism9.0 software. All the experimental data are tested for normality, and the measurement data are expressed as mean±standard deviation. The mean of multiple groups of samples is compared by One-way Analysis of Variance (one-way ANOVA). P<0.05 is statistically significant. The results are shown in FIG. 5A, FIG. 5B, FIG. 6 and FIG. 7.
# [3] = NOAEL of mice and conversion into human equivalent dose (HED)
# Description: as §1, §2
# IPF patients = details: after 52 weeks of treatment; cited from earlier work
compound,measurement,setting,value
"CN(C)C(=N)N=C(N)N [Metformin, metformin]",maximum recommended initial inhalation dose for the first human study,[1],97.8 mg
same,expression of α-SMA (immunofluorescence),α-SMA,decreased significantly
same,alveolar structure (Masson and HE staining),"[2]; BLM+Met group, FIG. 6",complete
same,inflammatory cells in alveolar cavity and alveolar septum,"[2]; BLM+Met group, FIG. 6",no obvious inflammatory cells
same,body weight of mice with pulmonary fibrosis,"[2]; BLM+Met vs BLM group, FIG. 5A",decreased
same,macroscopic damage of lung,"[2]; BLM+Met vs BLM group, FIG. 5B","pink, with smooth surface and elastic touch"
same,collagen fibers (Masson and HE staining),"[2]; BLM+Met vs BLM group, FIG. 6",significantly reduced
same,degree of fibrosis (Masson and HE staining),"[2]; BLM+Met vs BLM group, FIG. 6",significantly improved
same,NOAEL at 3 weeks,"[3]; C57BL6, mouse, in vivo, inhaled or intranasal, 200 mg/kg",200 mg/kg
same,HED (human equivalent dose),[3]; NOAEL of mice/12.3,16.3 mg/kg
Cc1ccc(=O)n(-c2ccccc2)c1 [pirfenidone],disease progression of IPF patients,IPF patients,effectively slow down the disease progression
